Source: US20230374177A1, “CYTOSOLIC MICROPARTICLES, PHAGOCYTIC CELLS COMPRISING THE SAME, AND METHODS FOR TREATING DISEASE COMPRISING THE SAME” (Florida State University Research Foundation, Inc., priority 2022, published 2023)

The molecules below were run on RAW264.7 macrophages (assay: Effects of factors on phagosomal rupture at 22° C.). Settings: 22° C. cold shock; chloroquine 100 μM 30 min, tetrandrine 5 μM 30 min, colchicine 5 μM 3 h, LLOMe 1 mM 30 min, hypotonic shock 0.6×PBS.
Format: cell-based
Protocol: Incubation of macrophages with microparticles. […] A prewarmed suspension of macrophages in the complete medium (3.5×10^5 cells/mL, 1 mL, 37° C.) supplemented with LPS (1 μg/mL) was added into a chamber and incubated (5% CO2, 37° C.) for the specified period.
Control. […] After 3 h, the complete medium was replaced with PBS (1 mL, 22° C.) and maintained for 2 min before being imaged.
Hypotonic shock. 0.6×PBS was prepared by mixing PBS with H2O (volume ratio=6:4). […] After 3 h, the complete medium was replaced with the 0.6×PBS (1 mL, 22° C.) and maintained for 2 min before being imaged.
Chloroquine. […] After 2.5 h, chloroquine (10 mM in DMEM) was added to the culture to reach 100 μM and further incubated (5% CO2, 37° C.) for 30 min. The complete medium was replaced with PBS (1 mL, 22° C.) and maintained for 2 min before being imaged.
Tetrandrine. […] After 2.5 h, tetrandrine (5 mM in DMSO) was added to the culture to reach 5 μM and further incubated (5% CO2, 37° C.) for 30 min. The complete medium was replaced with PBS (1 mL, 22° C.) and maintained for 2 min before being imaged.
Colchicine. […] After 3 h, colchicine (2.5 mM in DMEM) was added to the culture at 5 μM and further incubated (5% CO2, 37° C.) for 3 h. The complete medium was replaced with PBS (1 mL, 22° C.) and maintained for 2 min before being imaged.
LLOMe. […] After 2.5 h, LLOMe (10 mM in DMEM) was added to the culture at 1 mM and further incubated (5% CO2, 37° C.) for 30 min. The complete medium was replaced with PBS (1 mL, 22° C.) and maintained for 2 min before being imaged.
For each factor, an experiment was conducted to study its effect. […] Exposure of the macrophages to each factor was conducted either during or before the cold shock.

| SMILES | effect on percentage of phagosomal rupture at 22° C. compared to the control |
| --- | --- |
| CCN(CC)CCCC(C)Nc1ccnc2cc(Cl)ccc12 (stereo not drawn) [Chloroquine] | did not induce a significant effect |
| COc1cc2c(c(OC)c1OC)-c1ccc(OC)c(=O)cc1[C@@H](NC(C)=O)CC2 [Colchicine] | insignificant |
| COC(=O)[C@H](CC(C)C)NC(=O)[C@@H](N)CC(C)C.Cl [LLOMe, L-Leucyl-L-leucine methyl ester hydrochloride] | significantly increased |
